Measurements published in US4557934A, “Penetrating topical pharmaceutical compositions containing 1-dodecyl-azacycloheptan-2-one” (priority 1983, dated 1985).

Experiments:
[1] = Penetration study through human skin, Franz diffusion apparatus; assay type: in vitro ADME; details: for reduction of penetration on addition, in words (compared with octanoic acid): Example 8
Source text: EtOH is ethanol. The term mcg=microgram.

[2] = clindamycin phosphate, erythromycin base, fusidate sodium, fluorouracil, desonide, amcinonide and triamcinolone acetonide; cited from earlier work
[3] = test system: rats; details: cited from earlier work

## CCCCCCCCCCCCCCCCCCO [steryl alcohol]
[1]
  reduction of penetration on addition, in words (compared with octanoic acid): Substantially similar results

## CCCCCCCCCCCCCCCCO [cetyl alcohol]
[1]
  reduction of penetration on addition, in words (compared with octanoic acid): Substantially similar results

## CCCCCCCCCC(=O)O [decanoic acid]
[1]
  reduction of penetration on addition, in words (compared with octanoic acid): Substantially similar results

## CCCCCCCC(=O)O [octanoic acid]
[1]; Example 8, 0-72 hrs, 4% octanoic acid
  reduction of penetration on addition to triamcinolone / propylene glycol / C14 OH composition: 50%

## CCCCCCCCCCCCN1CCCCCC1=O [Azone, 1-dodecyl-azacycloheptan-2-one]
[2]
  enhancement of cutaneous penetration: enhance the cutaneous penetration
[3]; rat, in vivo
  order of toxicity: low order of toxicity
[3]; rats
  lethal dose for 50% survival (LD50): about 8 g/kg
